# Laboratory results taken from PMC6749370, “Antibacterial Evaluation, In Silico Characters and Molecular Docking of Schiff Bases Derived from 5-aminopyrazoles” (Molecules, 2019).
# Marks after values point to notes of the source that are not given here.
# Columns and labels:
# [1] = tested on: Staphylococcus aureus (MRSA, Sa); assay: Minimal inhibitory concentration against multi-drug resistant bacteria; format: cell-based; settings: NA: No Activity
# Description: (§1) In vitro antibacterial activities against multi-drug resistant bacteria (MDRB) of Schiff bases 14–25 were performed at botany and microbiology department, Faculty of Science, Al-Azhar University, Cairo, Egypt. The antibacterial potential of 14–25 were investigated towards the multi-drug resistant bacteria (MDRB). The results were summarized as the diameter of the inhibition zones in mm and minimal inhibitory concentration (MIC, µg/mL) values in Table 2.
# (§2) The synthesized compounds, Schiff bases 14–25, were in vitro evaluation of their antibacterial properties against multi-drug resistant bacteria (MDRB). Examples of Gram-positive bacteria are Staphylococcus aureus (MRSA, Sa), Staphylococcus epidermis (Sp), and Enterococcus faecalis (Ef). Examples of Gram-negative bacteria are Acinetobacter baumannii (Ab), Enterobacter cloaca (Ecl), and Escherichia coli (Ec). All the tested strain was identified by Vitek®2 system. The multi-drug resistant to antibiotics such as Ampicillin, Cephalexin, Colisin, Ipemenem, and Meropenem was verified.
# Escherichia coli (Ec) = assay: as above; format: cell-based; settings: NA: No Activity
# Description: as §1, §2
# [2] = tested on: Enterococcus faecalis (Ef); assay: as above; format: cell-based; settings: NA: No Activity
# Description: as §1, §2
# [3] = tested on: Enterobacter cloaca (Ecl); assay: as above; format: cell-based; settings: NA: No Activity
# Description: as §1, with “(MDRB).” for “(MDRB). The results were summarized as the diameter of the inhibition zones in mm and minimal inhibitory concentration (MIC, µg/mL) values in Table 2.”
# as §2, with “system.” for “system. The multi-drug resistant to antibiotics such as Ampicillin, Cephalexin, Colisin, Ipemenem, and Meropenem was verified.”
# [4] = tested on: Staphylococcus epidermis (Se); assay: as above; format: cell-based; settings: NA: No Activity
# Description: as §1, with “(MDRB).” for “(MDRB). The results were summarized as the diameter of the inhibition zones in mm and minimal inhibitory concentration (MIC, µg/mL) values in Table 2.”
# as §2, with “system.” for “system. The multi-drug resistant to antibiotics such as Ampicillin, Cephalexin, Colisin, Ipemenem, and Meropenem was verified.”
# [5] = tested on: Acinetobacter baumannii (Ab); assay: as above; format: cell-based; settings: NA: No Activity
# Description: as §1, with “(MDRB).” for “(MDRB). The results were summarized as the diameter of the inhibition zones in mm and minimal inhibitory concentration (MIC, µg/mL) values in Table 2.”
# as §2, with “system.” for “system. The multi-drug resistant to antibiotics such as Ampicillin, Cephalexin, Colisin, Ipemenem, and Meropenem was verified.”
# Topoisomerase IV = Topoisomerase IV (Staphylococcus aureus, UniProt P0C1S7+P0C1U9); assay: In vitro enzyme inhibition assay; format: biochemical
# [6] = biological target: Staphylococcus aureus DNA gyrase (Staphylococcus aureus, UniProt P0A0K8+P20831); assay: In vitro enzyme inhibition assay; format: biochemical; settings: mean of three values, read-out: IC50 (Mean ± SEM) DNA Gyrase
SMILES,MIC [1] [µg/mL],MIC (Escherichia coli (Ec)) [µg/mL],MIC [2] [µg/mL],MIC [3] [µg/mL],MIC [4] [µg/mL],MIC [5] [µg/mL],"Minimal inhibitory concentration (MIC), Ec (Escherichia coli (Ec))","Minimal inhibitory concentration (MIC), Ecl [3]","Minimal inhibitory concentration (MIC), Ef [2]","Minimal inhibitory concentration (MIC), Sa [1]","Minimal inhibitory concentration (MIC), Ab [5]",IC50 (Topoisomerase IV) [µM],IC50 [6] [nM]
"O=C(O)c1cn(C2CC2)c2cc(N3CCNCC3)c(F)cc2c1=O [Ciprofloxacin, reference compound]",7.81,7.81,7.81,–,–,–,–,–,–,–,–,–,–
COc1ccc(Nc2n[nH]c(/N=C/c3ccccc3)c2C(=O)Nc2ccccc2)cc1 [Compound 14],31.2,–,15.6,125,7.81,–,–,–,–,–,–,–,–
COc1ccc(Nc2n[nH]c(/N=C/c3ccccc3)c2C(=O)Nc2ccc(C)cc2)cc1 [Compound 18],15.6,250,31.2,62.5,7.81,15.6,–,–,–,15.62 * µg/mL,15.62 * µg/mL,74.6 ± 1.2,1680 ± 100
COc1ccc(Nc2n[nH]c(/N=C/c3ccc(C)cc3)c2C(=O)Nc2ccc(C)cc2)cc1 [Compound 19],31.2,62.5,15.6,125,15.6,62.5,–,–,–,–,–,–,–
COc1ccc(Nc2n[nH]c(/N=C/c3ccc(Cl)cc3)c2C(=O)Nc2ccc(C)cc2)cc1 [Compound 20],62.5,–,250,–,125,–,–,–,–,–,–,–,–
COc1ccc(Nc2n[nH]c(/N=C/c3ccccc3)c2C(=O)Nc2ccc(Cl)cc2)cc1 [Compound 22],250,–,125,15.6,125,–,–,15.62 * µg/mL,–,–,–,–,–
COc1ccc(Nc2n[nH]c(/N=C/c3ccc(C)cc3)c2C(=O)Nc2ccc(Cl)cc2)cc1 [Compound 23],31.2,–,7.81,62.5,15.6,–,–,–,7.81 * µg/mL,–,–,–,–
COc1ccc(Nc2n[nH]c(/N=C/c3ccc(Cl)cc3)c2C(=O)Nc2ccc(Cl)cc2)cc1 [Compound 24],125,125,15.6,62.5,62.5,–,–,–,–,–,–,–,–

# More lines, main results first:
MIC [1] [µg/mL],MIC (Escherichia coli (Ec)) [µg/mL],MIC [2] [µg/mL],MIC [3] [µg/mL],MIC [4] [µg/mL],MIC [5] [µg/mL],"Minimal inhibitory concentration (MIC), Ec (Escherichia coli (Ec))","Minimal inhibitory concentration (MIC), Ecl [3]","Minimal inhibitory concentration (MIC), Ef [2]",SMILES,"Minimal inhibitory concentration (MIC), Sa [1]","Minimal inhibitory concentration (MIC), Ab [5]",IC50 (Topoisomerase IV) [µM],IC50 [6] [nM]
62.5,125,31.2,62.5,15.6,62.5,–,–,–,COc1ccc(Nc2n[nH]c(/N=C/c3ccc(C)cc3)c2C(=O)Nc2ccccc2)cc1 [Compound 15],62.50 µg/mL,–,–,–
31.2,125,62.5,62.5,7.81,15.6,–,–,–,COc1ccc(Nc2n[nH]c(/N=C/c3ccc(Cl)cc3)c2C(=O)Nc2ccccc2)cc1 [Compound 16],–,15.62 * µg/mL,–,–
62.5,31.2,–,125,31.2,62.5,31.25 * µg/mL,–,–,COc1ccc(Nc2n[nH]c(/N=C/c3ccc(F)cc3)c2C(=O)Nc2ccccc2)cc1 [Compound 17],–,–,–,–
125,–,–,–,62.5,–,–,–,–,COc1ccc(Nc2n[nH]c(/N=C/c3ccc(F)cc3)c2C(=O)Nc2ccc(C)cc2)cc1 [Compound 21],–,–,–,–
